The term melting point denotes the temperature of the solid-liquid transition.

We go through 43 compounds from patent publication US7582627B2, “3-aminoquinazolin-2,4-dione antibacterial agents” (Warner-Lambert Company, priority 2000, dated 2009).

Where a name gives a salt, the structure may show the parent alone. Some results are limits rather than exact numbers.

Take `Cc1c(N2CCC(C(=O)O)C2)c(F)cc2c(=O)n(N)c(=O)n(C3CC3)c12.O=C(O)C(F)(F)F` (stereo not shown): the melting point was 226 °C (dec.). The figure for `Cc1c(N2CC3CC3(CN)C2)c(F)cc2c(=O)n(N)c(=O)n(C3CC3)c12.Cl` (stereo not shown) is 189 to 194 °C; for `Cc1c(N2CC3CCCNC3C2)c(F)cc2c(=O)n(N)c(=O)n(C3CC3)c12.Cl` (stereo not shown) it is 220 °C; for `Cl.Nn1c(=O)c2cc(F)c(N3CCC(N)(c4ccccc4)C3)c(Cl)c2n(C2CC2)c1=O` (stereo not shown) it is 198 to 200 °C.

`Cc1c(N2CCC(C(C)(C)O)C2)c(F)cc2c(=O)n(N)c(=O)n(C3CC3)c12.Cl` (stereo not shown) yielded a melting point of 116 to 120 °C. To `COc1c(N2CCC(C(C)(C)O)C2)c(F)cc2c(=O)n(N)c(=O)n(C3CC3)c12.Cl` (stereo not shown) belongs 134 °C (dec.). To `COc1c(N2CC3C(N)CC3(C)C2)c(F)cc2c(=O)n(N)c(=O)n(C3CC3)c12.Cl` (stereo not shown) belongs above 190 °C; to `COc1c(N2CCC3(CC3N)C2)c(F)cc2c(=O)n(N)c(=O)n(C3CC3)c12.Cl` (stereo not shown), above 250 °C; to `Cc1c(N2CC3CCCCC3(CN)C2)c(F)cc2c(=O)n(N)c(=O)n(C3CC3)c12.Cl` (stereo not shown), above 250 °C. The figure for `Cl.N#Cc1c(N2CCC(N)C2)c(F)cc2c(=O)n(N)c(=O)n(C3CC3)c12` (stereo not shown) is 277 °C.

Compound `CC1COc2c(N3CC[C@H](N)C3)c(F)cc3c(=O)n(N)c(=O)n1c23.Cl` (stereo partly shown) yielded a melting point of 202 to 204 °C. The figure for `Cl.N[C@H]1CCN(c2nc3c(cc2F)c(=O)n(N)c(=O)n3C2CC2)C1` is 213 to 215 °C; for `CN[C@H](C)[C@@H]1CCN(c2nc3c(cc2F)c(=O)n(N)c(=O)n3C2CC2)C1.Cl` it is 137 to 139 °C; for `CN[C@@H](C)[C@@H]1CCN(c2c(F)cc3c(=O)n(N)c(=O)n(C4CC4)c3c2C)C1.Cl` it is 153 to 155 °C.

Compound `COCC1(CN)CCN(c2c(F)cc3c(=O)n(N)c(=O)n(C4CC4)c3c2C)C1.Cl` (stereo not shown) came in with a melting point of 172 to 177 °C. The compound `COc1c(N2CC(C(C)N)C(C)(C)C2)c(F)cc2c(=O)n(N)c(=O)n(C3CC3)c12.Cl` (stereo not shown) had a melting point of 230 °C.

In the case of `Cc1c(N2CC(CN)C3(CC3)C2)c(F)cc2c(=O)n(N)c(=O)n(C3CC3)c12.Cl` (stereo not shown), the melting point is 167 °C. To `COc1c(N2CC(CN)C3(CC3)C2)c(F)cc2c(=O)n(N)c(=O)n(C3CC3)c12.Cl` (stereo not shown) belongs 178 °C; to `COC1CN(c2c(F)cc3c(=O)n(N)c(=O)n(C4CC4)c3c2C)CC1N.Cl` (stereo not shown), above 250 °C; to `NC1C2CN(c3c(F)cc4c(=O)n(N)c(=O)n(C5CC5)c4c3Cl)CC12` (stereo not shown) (as salt: hydrochloride), 111 to 114 °C. The figure for `CC1CCc2c(N3CC[C@H](N)C3)c(F)cc3c(=O)n(N)c(=O)n1c23` (stereo partly shown) (as salt: hydrochloride) is 202 to 204 °C; for `CC1(CN)CCN(c2c(F)cc3c(=O)n(N)c(=O)n(C4CC4)c3c2Cl)C1` (stereo not shown) (as salt: hydrochloride) [Compound 3, 3-Amino-7-[3-(aminomethyl)-3-methylpyrrolidin-1-yl]-8-chloro-1-cyclopropyl-6-fluoro-1H-quinazoline-2,4-dione hydrochloride] it is 166 to 168 °C; for `CN[C@H]1CCN(c2c(F)cc3c(=O)n(N)c(=O)n(C4CC4)c3c2Cl)C1` (as salt: hydrochloride) [Compound 5, 3-Amino-7-((S)-3-N-methylaminopyrrolidin-1-yl)-8-chloro-1-cyclopropyl-6-fluoro-1H-quinazoline-2,4-dione hydrochloride] it is 118 to 120 °C. Turning to `N[C@H]1CCN(c2c(F)c(F)c3c(=O)n(N)c(=O)n(C4CC4)c3c2F)C1` (as salt: hydrochloride) [Compound 9, 3-Amino-7-((S)-3-aminopyrrolidin-1-yl)-1-cyclopropyl-5,6,8-trifluoro-1H-quinazoline-2,4-dione hydrochloride], the melting point is 271 °C (dec.). On to `Nc1c(F)c(N2CC[C@H](N)C2)c(F)c2c1c(=O)n(N)c(=O)n2C1CC1` (as salt: hydrochloride) [Compound 11, 7-((S)-3-Aminopyrrolidin-1-yl)-1-cyclopropyl-3,5-diamino-6,8-difluoro-1H-quinazoline-2,4-dione hydrochloride], for which the melting point is 215 to 218 °C (dec.). Compound `CC(C)n1c(=O)n(N)c(=O)c2cc(F)c(N3CCC(N)C3)c(Cl)c21` (stereo not shown) (as salt: trifluoroacetate) gave a melting point of 151 °C.

Consider `C[C@@H]1CN(c2c(F)cc3c(=O)n(N)c(=O)n(C4CC4)c3c2Cl)C[C@H]1CN.Cl` (relative stereo), for which the melting point lay within 215 to 217 °C. On to `COc1c(N2C[C@@H](CN)[C@H](C)C2)c(F)cc2c(=O)n(N)c(=O)n(C3CC3)c12.Cl` (relative stereo), for which the melting point worked out at 189 °C.

Take `Cc1c(N2C[C@@H](CN)[C@H](C)C2)c(F)cc2c(=O)n(N)c(=O)n(C3CC3)c12.Cl` (relative stereo): the melting point was 220 °C. The figure for `COc1c(N2C[C@@H](C)[C@H](N)C2)c(F)cc2c(=O)n(N)c(=O)n(C3CC3)c12.Cl` (relative stereo) is 209 °C; for `COc1c(N2C[C@@H](CN)[C@@H](F)C2)c(F)cc2c(=O)n(N)c(=O)n(C3CC3)c12.Cl` (relative stereo) it is 169 to 179 °C; for `COc1c(N2C[C@@H](CN)[C@H](F)C2)c(F)cc2c(=O)n(N)c(=O)n(C3CC3)c12.Cl` (relative stereo) it is 144 to 147 °C.

Consider `Cl.NC[C@@H]1CN(c2nc3c(cc2F)c(=O)n(N)c(=O)n3C2CC2)C[C@H]1C(F)(F)F` (relative stereo), for which the melting point was 214 to 216 °C. Turning to `Cl.N[C@@H]1CN(c2c(F)cc3c(=O)n(N)c(=O)n(C4CC4)c3c2Cl)C[C@H]1C(F)(F)F` (relative stereo), the melting point lay in the range of 181 to 183 °C. The figure for `Cl.N[C@@H]1CN(c2c(F)cc3c(=O)n(N)c(=O)n(C4CC4)c3c2Cl)C[C@H]1c1ccccc1` (relative stereo) is 174 to 175 °C; for `Cl.N[C@@H]1CN(c2c(F)cc3c(=O)n(N)c(=O)n(C4CC4)c3c2Cl)C[C@H]1c1ccc(O)cc1` (relative stereo) it is above 200 °C. To `COc1c(N2C[C@@H](CN)[C@H](C(F)(F)F)C2)c(F)cc2c(=O)n(N)c(=O)n(C3CC3)c12.Cl` (relative stereo) belongs 205 to 207 °C; to `NC(=O)C1CCCN(c2c(F)cc3c(=O)n(N)c(=O)n(C4CC4)c3c2Cl)C1` (stereo not shown) [Compound 58, 1-(3-Amino-8-chloro-1-cyclopropyl-6-fluoro-2,4-dioxo-1,2,3,4-tetrahydroquinazolin-7-yl)piperidine-3-carboxylic acid amide], 141 to 144 °C; to `Nn1c(=O)c2cc(F)c(N3CCC4(CCNC4)C3)c(Cl)c2n(C2CC2)c1=O` (stereo not shown) [Compound 62, 3-Amino-8-chloro-1-cyclopropyl-7-(2,7-diazaspiro[4.4]non-2-yl)-6-fluoro-1H-quinazoline-2,4-dione], 147 to 149 °C. To `Nn1c(=O)c2cc(F)c(N3CCC(=NO)C3)c(Cl)c2n(C2CC2)c1=O` [Compound 65, 3-Amino-8-chloro-1-cyclopropyl-6-fluoro-7-(3-hydroxyimino-pyrrolidin-1-yl)-1H-quinazoline-2,4-dione] belongs 147 to 149 °C. `CS(=O)(=O)NCC1CCN(c2c(F)cc3c(=O)n(N)c(=O)n(C4CC4)c3c2Cl)C1` (stereo not shown) [Compound 74, N-[1-(3-Amino-8-chloro-1-cyclopropyl-6-fluoro-2,4-dioxo-1,2,3,4-tetrahydroquinazolin-7-yl)pyrrolidin-3-ylmethyl]methanesulfonamide] displayed a melting point of 109 to 112 °C. To `Cc1c(N2CC[C@H]([C@@H](C)N)C2)c(F)cc2c(=O)n(N)c(=O)n(C3CC3)c12.Cl` [Compound 75] belongs 194 to 196 °C; to `COc1c(N2CC[C@H]([C@@H](C)N)C2)c(F)cc2c(=O)n(N)c(=O)n(C3CC3)c12.Cl` [Compound 133], 228 to 230 °C.
